Measurements taken from patent US7230016B2, “Pioglitazone salts, such as pioglitazone sulfate, and pharmaceutical compositions and processes using the same” (priority 2003, dated 2007).
“Also recorded” adds a separate entry of the source. Structures can show the parent of a compound that is named as a salt. Where two headings read alike, the source gives them in different places. One block for each molecule: values may come before it.

Key:
[1] = Aqueous solubility of pioglitazone salts derived from strong acids or bases; assay type: physicochemical; conditions: for soluble in H2O: aqueous solubility of the salt, * = the salt is dissolved in water to form a blurred solution
Protocol: As used herein a pioglitazone salt is considered “water-soluble” if a salt concentration of at least 7 mg/ml can be achieved, even if only momentarily, in distilled water at 25° C. […] The base salts also dissolved in water but they typically formed an unclear solution. The water-soluble salts of pioglitazone are useful as active agents in forming a pioglitazone pharmaceutical composition, especially solid dosage forms, as is described herein after. […] Depending on the salt, the precipitation of a solid begins as quickly as within a few minutes or after several hours. The time of precipitation also depends on nucleation. In particular, once a solid forms, the solution quickly precipitates to form a complete suspension.

[2] = Properties of pioglitazone sulfate (solid state, methanol solubility, pH of aqueous solution); assay type: physicochemical
Protocol: Of the water-soluble salts, pioglitazone sulfate is the most preferred. As used herein “pioglitazone sulfate” means the salt formed from pioglitazone and sulfuric acid. The salt preferably has approximately a 1:1 molar ratio of pioglitazone moiety to sulfuric acid moiety, especially in solid form. […] Pioglitazone sulfate may be isolated in solid state as a white or almost white crystalline material. It melts at a temperature of about 105 to 115° C., without decomposition. […] Pioglitazone sulfate is thus an especially useful form of pioglitazone for making pharmaceutical formulations, e.g., as an active agent. The pioglitazone sulfate can precipitate from the solution spontaneously, but more likely some step such as cooling, concentrating, adding a seeding crystal, or adding a contrasolvent is advantageously and/or necessarily carried out. As pioglitazone sulfate is soluble in methanol, the addition of a contrasolvent is advantageous for precipitating the solid state salt. […] The size and shape of the formed crystals may be modified by known ways, for instance by precipitation regimen or by using crystallization modifiers. Solid state pioglitazone sulfate is a stable, easily handled solid material, and it may be used as an equivalent to pioglitazone hydrochloride in pharmaceutical compositions for treating pioglitazone-treatable diseases. […] Liquid compositions, particularly aqueous compositions, may include a solution stabilizer as indicated above. The stabilizer preferably comprises a water-soluble polymer, such as hydroxypropylmethylcellulose. The concentration of the polymer in the solution can be within any of the above-described ranges but most preferably is within the range from 0.1 to 10% (w/V) of the total volume. An aqueous solution of pioglitazone sulfate typically has a pH of about 4, which is well suited for both parenteral and peroral compositions.

[3] = Stability of pioglitazone sulfate aqueous solution with HPMC as solution stabilizer (Examples 3 and 4); assay type: physicochemical
Description: Specifically, a solution stabilizer can be effectively added to a pioglitazone sulfate aqueous solution to enhance the stability. As used herein a “solution stabilizer” is an additive that when present in some amount in an aqueous pioglitazone sulfate solution, provides a statistically significant delay in the precipitation of pioglitazone base from the solution in comparison to the same solution held under the same conditions but without the solution stabilizer contained therein. […] Typically the solution stabilizer is a polymer, such as a water-soluble polymer, or a crown-ether. The solution stabilizer may be fully dissolved, partly dissolved and/or swelled, or not dissolved in the aqueous solution, but is preferably dissolved therein. Preferably the solution stabilizer is hydroxypropylmethylcellulose (HPMC), polyvinylpyrrolidone, or cyclodextrin, and most preferably HPMC. The amount of solution stabilizer is generally within the range of 1 to 500 mg/ml of the solution, typically 1 to 200 mg/ml, more typically 10 to 100 mg/ml. A stabilized pioglitazone sulfate solution is thus especially useful as a liquid pharmaceutical formulation and/or for making a liquid pharmaceutical formulation. The following system was tested using HPMC as an additive. […] To a clear solution containing 1.0 g of hydroxypropylmethylcellulose (HPMC) in 25 ml of H2O was added 125 mg of pioglitazone sulfate with stirring.

[4] = Dissolution experiment comparing pioglitazone salts (Example 2); assay type: physicochemical; conditions: room temperature; for Dissolution (instant dissolution rate): 0.25 mmol salt added into 10 ml H2O with stirring, ** = salt dissolved partially to form an unclear solution; for later behaviour of the solution (turning into suspension / pioglitazone base) / kind of solution yielded on addition to water: 0.25 mmol salt in 10 ml H2O, stirring; for kind of solution yielded on addition to water: tosylate and 2-napsylate within 1 minute
Protocol: At room temperature, each pioglitazone salt (0.25 mmol) was added into 10 ml H2O with stirring.

[5] = cited from earlier work

soluble in H2O [1]: yes*
SMILES: CCc1ccc(CCOc2ccc(CC3SC(=O)NC3=O)cc2)nc1 (stereo not shown) [Na salt]

soluble in H2O [1]: yes*
SMILES: CCc1ccc(CCOc2ccc(CC3SC(=O)NC3=O)cc2)nc1 (stereo not shown) [Ca salt]

soluble in H2O [1]: yes*
SMILES: CCc1ccc(CCOc2ccc(CC3SC(=O)NC3=O)cc2)nc1 (stereo not shown) [Choline salt]

soluble in H2O [1]: Yes
dissolution in water [1]: dissolved instantly in water
solubility in water [1]: superior aqueous solubility
pH of aqueous solution ([2]; aqueous solution): about 4
solubility in methanol ([2]; methanol): soluble
hygroscopicity of the solid compound ([2]; solid): not hygroscopic
stability of the solid state material ([2]; solid state): stable
dissolution in HPMC water solution ([3]; 100 mg in HPMC water solution (2%, 25 ml)): easily dissolved
dissolution in HPMC water solution ([3]; 125 mg added with stirring to 1.0 g HPMC in 25 ml H2O): A clear solution was formed
stability of the HPMC-stabilized solution ([3]; 125 mg in 1.0 g HPMC / 25 ml H2O, stirred at room temperature for more than one month): No obvious solid appeared
Dissolution (instant dissolution rate) [4]: Yes
later behaviour of the solution (turning into suspension / pioglitazone base) [4]: slowly turned into a suspension
kind of solution yielded on addition to water [4]: clear solutions
SMILES: CCc1ccc(CCOc2ccc(CC3SC(=O)NC3=O)cc2)nc1 (stereo not shown) [Sulfate, pioglitazone sulfate]
stability of the water solution (precipitation of pioglitazone base) ([1]; aqueous solution without stabilizer): can stably remain in an aqueous solution for hours; also recorded: will eventually, after a trace of solid appears, turn into a suspension of pioglitazone base
stability of the HPMC-stabilized solution ([3]; 0.4% w/v pioglitazone sulfate in 2% HPMC water solution, room temperature, no obvious precipitation of a solid): stable at room temperature for at least four weeks

soluble in H2O ([1]; hydrochloride): No
behaviour of methanolic solution poured into water ([1]; no base (neutralizing agent) used): pioglitazone base quickly precipitates
dissolution in water ([1]; hydrochloride): did not dissolve in water
SMILES: CCc1ccc(CCOc2ccc(CC3SC(=O)NC3=O)cc2)nc1 (stereo not shown) [Hydrochloride, Pioglitazone hydrochloride]
solubility in N,N-dimethylformamide ([5]; N,N-dimethylformamide): dissolves well
solubility in acetone ([5]; acetone): very slightly soluble
solubility in acetonitrile ([5]; acetonitrile): very slightly soluble
solubility in anhydrous ethanol ([5]; anhydrous ethanol): slightly soluble
solubility in dimethyl-sulfoxide ([5]; dimethyl-sulfoxide): dissolves well
solubility in ether ([5]; ether): insoluble
stability of the crystalline material ([5]; room temperature and under moisture): stable
solubility in water ([5]; water, hydrochloride): practically insoluble; also recorded: extremely insoluble

soluble in H2O [1]: Yes
dissolution in water ([1]; listed as ethane-di-sulfonate): dissolved instantly in water
Dissolution (instant dissolution rate) ([4]; listed as ethane-disulfonate): Yes
later behaviour of the solution (turning into suspension / pioglitazone base) ([4]; listed as ethane disulfonate): slowly turned into a suspension
kind of solution yielded on addition to water ([4]; listed as ethane disulfonate): clear solutions
SMILES: CCc1ccc(CCOc2ccc(CC3SC(=O)NC3=O)cc2)nc1 (stereo not shown) [Edisylate]

Dissolution (instant dissolution rate) [4]: yes/no**
later behaviour of the solution (turning into suspension / pioglitazone base) [4]: quickly turned into a suspension
kind of solution yielded on addition to water [4]: unclear solutions
SMILES: CCc1ccc(CCOc2ccc(CC3SC(=O)NC3=O)cc2)nc1 (stereo not shown) [Tosylate]

soluble in H2O [1]: Slight
Dissolution (instant dissolution rate) [4]: yes/no**
later behaviour of the solution (turning into suspension / pioglitazone base) [4]: quickly turned into a suspension
kind of solution yielded on addition to water [4]: unclear solutions
SMILES: CCc1ccc(CCOc2ccc(CC3SC(=O)NC3=O)cc2)nc1 (stereo not shown) [2-Napsylate]

solubility in water [1]: so low
SMILES: CCc1ccc(CCOc2ccc(CC3SC(=O)NC3=O)cc2)nc1 (stereo not shown) [pioglitazone base, 5-[[4-[2-(5-ethyl-2-pyridinyl)-ethoxy]phenyl]methyl]-2,4-thiazolidinedione, reference compound]

soluble in H2O [1]: No
SMILES: CCc1ccc(CCOc2ccc(CC3SC(=O)NC3=O)cc2)nc1 (stereo not shown) [Hydrobromide]

soluble in H2O [1]: yes*
SMILES: CCc1ccc(CCOc2ccc(CC3SC(=O)NC3=O)cc2)nc1 (stereo not shown) [K salt]

soluble in H2O [1]: Yes
dissolution in water [1]: dissolved instantly in water
SMILES: CCc1ccc(CCOc2ccc(CC3SC(=O)NC3=O)cc2)nc1 (stereo not shown) [Mesylate]
